# Laboratory results reported in patent publication US6939863B2, “Prevention of atherosclerosis and restenosis” (priority 2002, dated 2005).
# “Also recorded” adds a separate entry of the source. Where two headings read alike, the source gives them in different places.
# What was measured:
# in vivo = conditions: male, New Zealand White, rabbit, 0.1 % in the drinking water, Serum PTU at sacrifice, 0.1% propylthiouracil in drinking water
# Experimental: Serum propylthiouracil levels were measured by HPLC with mephenoxalone (Tung Yang Chemical Industries, Taiwan) as an internal standard. One hundred microliters of serum was placed into a tube containing 25 microliters of mephenoxalone (Tung Yang Chemical Industries, Taiwan) at 1 milligram per milliliter. All tubes were treated with 25 microliters of 1 molar K2HPO4 and mixed well by vortexing. The contents of each tube were extracted with 2 milliliters of methyl tert-butyl ether (MTBE) (Sigma, St. Louis, Mo.). Tube contents were mixed and centrifuged for 10 minutes at 3000 rpm at 25° C. The supernatant was transferred to a glass tube, dried under nitrogen gas, and reconstituted with 300 microliters of mobile phase. HPLC was performed by using a Hitachi HPLC system (Hitachi, Japan). An ODS column (Cosmosil 5C18-MS, 4.6 millimeters×250 millimeters, 5 micrometers, Nacalai Tesque, Japan) was used in this chromatographic separation, as well as an ultraviolet detector detecting at 275 nanometers. The mobile phase (acetonitrile/water/phosphoric acid, 40/60/0.5, vol/vol/vol) was degassed and filtered before use. The column flow rate was 1.0 milliliter per minute and column temperature was maintained at 40° C.
# [1] = system: rat vascular smooth muscle cells; assay: Vascular smooth muscle cell proliferation (cell number); type: cell-based; conditions: for Cell number of VSMCs: 24 hours
# Experimental: (§1) Rat vascular smooth muscle cells (VSMCs) (passages 5-10) were prepared from Sprague-Dawley rats and cultured in Dulbecco's modified Eagle's medium (DMEM) supplemented with 10% fetal bovine serum (FBS) as previously described (Kirschenlohr et al, in “Human Cell Culture Protocols”, New Jersey, Humana Press Inc, 1996, pp. 318-335). Human endothelial cells from umbilical veins were prepared as described (Morgan, in “Human Cell Culture Protocols”, New Jersey, Humana Press Inc, 1996, pp. 101-152)
# (§2) Rat vascular smooth muscle cells and human endothelial cells were plated at a density of 10,000 cells per square centimeter in 24-well plates. After 24 hours, cells at 70-80% confluency were treated with propylthiouracil dissolved in 100% dimethylsulfoxide (DMSO) at final concentrations of from 0.05 millimolar to 15 millimolar, or with methimazole (Sigma, St. Louis, Mo.) dissolved in water at the concentrations of from 0.01 millimolar to 1 millimolar for 24-72 hours. Cell numbers were visually counted using a hemocytometer. For the thymidine incorporation study, cells were deprived of serum for 36 hours and labeled with [methyl-^3H]thymidine at […] per milliliter for 12-24 hours after synchronization. Thymidine incorporation was then measured (Newby and George, 1996, Curr. Opin. Cardiol., 11:547). Effects of propylthiouracil and methimazole on the number of vascular smooth muscle cells and human endothelial cells and thymidine incorporation by vascular smooth muscle cells were each expressed as a percentage of the number and thymidine incorporation of control cells maintained in medium containing 0.1% DMSO as vehicle.
# [2] = system: rat vascular smooth muscle cells; assay: [methyl-3H]thymidine incorporation into VSMCs; type: cell-based
# Experimental: as §1, §2
# [3] = system: human endothelial cells from umbilical veins; assay: cells
# Experimental: as §1, §2
# [4] = system: type I and type III collagen expression in rat vascular smooth muscle cells; conditions: 5 millimolar
# Experimental: The expression of smooth muscle cell collagen was determined by Northern blot analysis at the RNA level and Western blot analysis on the protein level. Total RNA (10 micrograms) from vascular smooth muscle cells grown in the media containing 0 (Control), 0.5 millimolar, 2.5 millimolar, or 5 millimolar propylthiouracil (PTU) for 24 hours was electrophoresed on a 1% agarose gel. The levels of pro-α1(I) collagen mRNA were measured as radioactivities, normalized relative to the density of 18S and 28S rRNA (FIG. 12, Panel A).
# The effects of lower physiological concentrations of propylthiouracil on the expression of type I and type III collagen genes was also studied at the RNA level. Northern blot analysis was carried out on total RNA from rat vascular smooth muscle cells grown for 24 to 72 hours (1 to 3 days) in media containing 0 (Control, C), 0.38 millimolar, 0.5 millimolar, or 0.76 millimolar propylthiouracil. Type I collagen (FIG. 13, Panel A) and type III collagen (FIG. 13, Panel B) mRNA radioactivity levels were normalized relative to 18S and 28S rRNA (FIG. 13, Panel C).
# Type I collagen (FIG. 14, Panel A) and type III collagen (FIG. 14, Panel B) protein levels were normalized relative to the protein levels of tubulin. […]
# [5] = system: rat vascular smooth muscle cells
# [6] = system: rat vascular smooth muscle cells; conditions: for Pyknosis or karyorhexis (features of apoptosis), propidium iodide-stained cells: 5 millimolar, 24 hours
# [7] = summary table; cited from earlier work
# restenosis = conditions: summary table; cited from earlier work; note: key: '+' represents the ability; a '−' represents the inability of conversion from a non-contracile phenotype to a contractile phenotype in an in vitro condition; A '↓' represents decrease; a '?' represents no data is available
# [8] = Rabbit 12-week study: body weight, chow and water consumption, serum lipids, thyroid hormone index, blood counts, arterial pressure, heart rate; conditions: for Weight at sacrifice / Chow consumption: 12 weeks; for Chow consumption / Water consumption: mean ± SD
# [9] = propylthiouracil-treated groups
# Throughout, for Anti-inflammation: key: '+' represents the ability; a '−' represents the inability of conversion from a non-contracile phenotype to a contractile phenotype in an in vitro condition; A '↓' represents decrease; a '?' represents no data is available.
structure (smiles),measurement,setting,value
"CCCc1cc(=O)[nH]c(=S)[nH]1 [Propylthiouracil, 6-n-propyl-2-thiouracil]",concentration at 12 weeks,in vivo; 2% cholesterol diet,1330 ± 1200 ng/mL
same,concentration at 12 weeks,in vivo; normal chow,1570 ± 700 ng/mL
same,Cell number of VSMCs,[1]; 0.05 millimolar,103 % of control
same,Proliferation of VSMCs at low concentration,"[1]; 0.05 millimolar, 24 hours treatment",not inhibited
same,"Proliferation of VSMCs at low concentration, long-term","[1]; 0.05 millimolar, exposed for more than 2 days",antiproliferative effect was indeed observed
same,Cell number of VSMCs,[1]; 0.5 millimolar,103 % of control
same,Cell number of VSMCs,[1]; 2.5 millimolar,76 % of control
same,Cell number of VSMCs,[1]; 5 millimolar,57 % of control
same,IC50,"[1]; Rattus norvegicus, VSMC, 24 h, read-out: IC50 for VSMCs (proliferation)",5.8 mM
same,Inhibition of growth/proliferation of VSMCs,"[1]; concentration-dependent, PTU 0.05-5 millimolar, methimazole 0.01-1 millimolar",significantly inhibited
same,Thymidine incorporation into VSMCs,[2]; 0.05 millimolar,99 % of control
same,Thymidine incorporation into VSMCs,[2]; 0.5 millimolar,93 % of control
same,Thymidine incorporation into VSMCs,[2]; 2.5 millimolar,75 % of control
same,Thymidine incorporation into VSMCs,[2]; 5 millimolar,38 % of control
same,Inhibition of thymidine incorporation into VSMCs,[2]; concentration-dependent,significantly inhibited
same,Concentration at which significant inhibition of growth of vascular endothelial cells was observed,[3]; 24 hours,≥ 10 millimolar
same,Growth of vascular endothelial cells,"[3]; 24 hours, concentrations of up to 7.5 millimolar",did not significantly inhibit
same,"Difference in inhibitory effect, vascular endothelial cells less than vascular smooth muscle cells",[3]; FIG. 7,20-30%
same,IC50,"[3]; Homo sapiens, Endothelial cell, 24 h, read-out: IC50 for endothelial cells (proliferation)",12 mM
same,Endothelial cellular function,"[3]; summary table, propylthiouracil",+
same,Staining density for type I collagen (immunocytochemistry),[4],decrease
same,Staining density for type III collagen (immunocytochemistry),[4],decrease
same,Cytotoxic effect on VSMCs by trypan blue exclusion test,[5]; 24 hours,no cytotoxic effect
same,Number of cells that excluded trypan blue,"[5]; 24 hours treatment, n=5",94.4±0.4%
same,"Pyknosis or karyorhexis (features of apoptosis), propidium iodide-stained cells",[6],did not cause any pyknosis or karyorhexis
same,"Pyknosis or karyorhexis (features of apoptosis), propidium iodide-stained cells",[6]; listed as propylthiouracil,did not cause pyknosis or karyorhexis
same,TUNEL-positive cells in VSMCs,[6]; propylthiouracil-treated VSMCs,absent
same,Anti-inflammation,[7],+
same,"Effect on animal models of restenosis, Rat",restenosis,+
same,Serum (milligrams percent) at sacrifice,[8]; 2% cholesterol diet,43 ± 33 milligrams percent
same,Serum CHO at sacrifice,[8]; 2% cholesterol diet,1965 ± 156 milligrams percent
same,Serum HDL at sacrifice,[8]; 2% cholesterol diet,67 ± 24 milligrams percent
same,Serum LDL at sacrifice,[8]; 2% cholesterol diet,1856 ± 152 milligrams percent
same,Serum TG at sacrifice,[8]; 2% cholesterol diet,213 ± 167 milligrams percent
same,Weight at sacrifice,[8]; 2% cholesterol diet,3.06 ± 0.17 kilograms
same,Chow consumption,[8]; 2% cholesterol diet,123 ± 18 grams per day
same,Water consumption,[8]; 2% cholesterol diet,201 ± 41 milliliters per day
same,Body weight at the end of treatment,"[8]; PTU and CHO+PTU groups, despite decreased water and chow intake",did not have a reduction in the body weight
same,Serum thyroxine (T4),[8]; after 4 weeks of treatment,decreased-to unmeasurable levels
same,Serum triiodothyronine (T3),[8]; after 4 weeks of treatment,decreased-to unmeasurable levels; also recorded: decreased to unmeasurable levels
same,Thyrotropin (TSH) level,[8]; hypothyroid groups,increase
same,Arterial pressures and heart rates,[8]; hypothyroid propylthiouracil-treated groups,did not have their arterial pressures and heart rates altered
same,Serum (milligrams percent) at sacrifice,[8]; normal chow,32 ± 8 milligrams percent
same,Serum CHO at sacrifice,[8]; normal chow,154 ± 22 milligrams percent
same,Serum HDL at sacrifice,[8]; normal chow,43 ± 30 milligrams percent
same,Serum LDL at sacrifice,[8]; normal chow,82 ± 32 milligrams percent
same,Serum TG at sacrifice,[8]; normal chow,175 ± 50 milligrams percent
same,Weight at sacrifice,[8]; normal chow,3.08 ± 0.17 kilograms
same,Chow consumption,[8]; normal chow,113 ± 13 grams per day
same,Water consumption,[8]; normal chow,196 ± 17 milliliters per day
same,"Serum cholesterol, triglyceride, LDL, and VLDL levels compared with the control group","[8]; normal chow, propylthiouracil only (Group 2)",slight increase
same,Agranulocytosis,[8]; [9],did not occur
same,Blood counts,[8]; [9],remained essentially unchanged
